# Data as given in US20230130102A1, “Na/K-ATPase LIGANDS AND USE THEREOF FOR TREATMENT OF CANCER” (Marshall University Research Corporation, priority 2019, published 2023).
# Values joined by “and” are separate entries in the source; they are usually repeats but may differ in a detail not shown here. Equal entries are not always repeated. “Also recorded” adds a separate entry of the source.
# Experiments:
# [1] = biological target: T1, α1 NKA/Src receptor complex (Sus scrofa, UniProt P05024); assay: ouabain-induced Src/ERK activation in LLC-PK1 cells (immunostaining, Western blot); format: cell-based, pig
# T1 construct: endogenous in cells; host or cells: LLC-PK1
# Description: (§1) Western blot, Immunoprecipitation and Immunostaining. Cells were grown to 100% confluency and Western blot were performed as described before. Images were quantified with ImageJ software from NIH. Immunoprecipitation studies were performed as described before. α1 NKA immunostaining was performed by growing cells on sterilized coverslips in 6 well tissue culture plates and permeabilization/fixation with ice-cold methanol followed by blocking with 5% horse serum and 0.1% Triton X-100 in 1× Phosphate buffered saline (PBS) for 30 minutes. Coverslips were then stained with an anti-α1 NKA antibody (Millipore, Cat #05-369) at 1:100 dilution in 1% BSA (Bovine Serum Albumin) containing 1×PBS solution for overnight. Next day after three washes, coverslips were stained with Alexa Fluor 488 conjugated anti-mouse secondary antibody (Thermo-Fisher) for 1 hour, washed extensively and then imaged using a fluorescent microscope with GFP filter or confocal microscope (LEICA-DMIRE2). E-cadherin and occludin immunostaining was performed in a similar manner. Phospho-Src, phospho ERK1/2 immunostaining were performed as described before and images were taken with a LEICA DMIRE2 confocal microscope.
# Characterization of MB5 activity on the NKA receptor function known as the NKA/Src binary receptor mechanism was conducted in a pig kidney epithelial cells (LLC-PK1)-based platform using immunostaining and Western blot analyses. […] The change of NKA conformation that occurs upon binding of agonists such as ouabain, results in the release and activation of the Src kinase domain from the “Naktide” site of NKA CD3, while the other interaction (constitutive) persists between NKA CD2 and the SH2 domain of Src. […] In LLC-PK1-derived cells with low NKA receptor constitutive activity due to substantial reduction (over 80%) of α1 NKA expression by siRNA (PY17 cells), increased basal Src and ERK activity is observed due to the abnormally high amount of Src kinase that remains in an active conformation. […]
# [2] = tested on: clone 2 spheroids (DU145 derived); assay: 3D culture spheroid invasion assay, subclone 2; format: cell-based, human
# Description: (§2) 3D culture-spheroid invasion assay. Cells were trypsinized gently (0.05% Trypsin-EDTA) and diluted at 1000 cells in 20 μl of full serum media for DU145 and C4-2 derived sub-clones or 500 cells in 20 ul for PC3 cells and allowed to form spheroids using hanging drop technique for 3 days, as described previously. Generated spheroids were then embedded into 3D matrix (not yet solidified at the time of experiment), as described in the previous section, on top of a 1% solidified agarose coating in 48 well plates. Spheroids were monitored from day 1 to different time points and images were taken using a phase contrast microscope fitted with camera, at same settings. Spheroid growth or invasion area was quantified using ImageJ software from NIH. The following formulas were used for quantitation of spheroids:
# Spheroid invasion=(Invasion area/Spheroid area)*100
# (§3) Spheroid growth=(Spheroid area at Day 3 or 7-Spheroid area at 16 hours)/Spheroid area at 16 hours
# (§4) For drug treatment, compound was diluted into media, from stock solution. For MMP secretion, conditioned media for 3 days were collected from top of matrix and assessed for MMP secretion by Western blot using Matrix Remodeling Antibody Sampler kit from Cell Signaling Technology (Cat #73959).
# [3] = tested on: subclone 2 cells; assay: Boyden chamber migration assay; format: cell-based, human
# Description: Boyden chamber assay. Different sub-clones were grown up to 100% confluency and then gently trypsinized with 0.05% trypsin-EDTA and 100,000 cells were plated in upper chamber of a […] containing transwell filter with 0.5% FBS containing media. Full serum (10% FBS) containing media was added to the lower chamber as chemoattractant. After 16 hours, a colorimetric assay was used to determine the migration of cells to the lower side of the filter, with absorbance read at 590 nm. Briefly, lower sides of the transwell were washed with 1×PBS and then fixed with ice cold methanol for 10 minutes. After gentle washes with 1×PBS, lower side of the filter were stained with Crystal violet solution (0.5% Crystal Violet in 20% Ethanol), washed and the stain was extracted with methanol. Result was normalized against migration of sub-clone 5 cells. For cell migration in presence of pharmacological compounds, cells at 100% confluency were pretreated for 24 hours with or without MB5, PP2 (Sigma-Aldrich, Catalogue No P0042) or FAK inhibitor I (Millipore, Catalogue No. 324877) and then assay was performed as described above.
# [4] = tested on: PC3 cells; assay: Western blot and cell fractionation in PC3 cells; format: cell-based, human; settings: PC3, 72-120 hours of treatment
# Description: as §1
# [5] = tested on: subclone 5 spheroids (DU145 derived); assay: 3D culture spheroid growth, subclone 5; format: cell-based, human; settings: subclone 5 spheroids in 3D culture
# Description: as §2, §3, §4
# [6] = biological target: T2, purified pig kidney NKA (Sus scrofa, UniProt P05024); assay: Na/K-ATPase (ATPase) activity assay; format: biochemical
# T2 construct: Na/K-ATPase activity assay of MB5 with purified pig kidney enzyme; from tissue; host or cells: pig kidney
# Description: It is appreciated that ouabain induces Src/ERK activation (increased protein phosphorylation) of LLC-PK1 cells by binding to α1 NKA and thereby initiates a signaling cascade which results in the endocytosis of the α1 NKA to terminate the signaling.
# ATPase activity assay. ATPase activity assay was performed as previously described.
# As archetypal agonists of NKA receptor function, ouabain and other CTS stimulate cellular signaling by activating α1 NKA/Src signalosome complex, which results in its endocytosis. It was reasoned that compounds that inhibit CTS induced signaling could function as inverse agonists of this signalosome complex and prevent α1 NKA endocytosis. A group of hydroxyxanthones were thus tested that were identified as a new class of Na/K-ATPase ligands using a high throughput in vitro screening platform and a library of 2600 structurally diverse chemicals.
smiles,measurement,setting,value
O=c1c2cccc(O)c2oc2c(O)c(O)ccc12 [MB5],ERK activation / NKA receptor function by the compound alone,[1]; baseline,did not activate NKA receptor function under baseline condition; also recorded: did not activate ERK
same,inhibition of ouabain-induced ERK (and Src) activation,[1]; pretreatment before ouabain,abolished ouabain-induced ERK activation; also recorded: better efficacy to inhibit ouabain-induced ERK activation than MB7; also recorded: dose-dependently inhibited Src and ERK activation; also recorded: significantly decreased ouabain-induced ERK signal
same,spheroid invasion,"[2]; clone 2 spheroids, 3D culture",abolished the invasion; also recorded: suppressed spheroid invasion by subclone 2 cells in a dose-dependent manner; also recorded: significantly reduced invasion of clone 2 spheroids in a dose-dependent manner
same,spheroid size,"[2]; subclone 2 spheroids, 72 hours",significantly reduced spheroid size
same,inhibition of migration of cancer cells,"[3]; Boyden chamber assay, clone 2",about 50%
same,cell migration compared with PP2 and FAK inhibitor,[3]; clone 2,as effectively as other kinase inhibitors
same,reduction of cell migration,"[3]; pretreatment with 100 nM for 24 hours, subclone 2",50%
same,EMT phenotype,[4],reversed the EMT phenotype
same,Src activation,[4],decreased Src activation
same,α1 NKA expression,[4],significantly increased α1 NKA expression
same,spheroid size,[5],significantly reduced the size of subclone 5 spheroids
same,inhibition of NKA activity,[6]; about 1 nM to 100 nM,~25%
same,"high affinity component, share of Na/K-ATPase activity",[6]; biphasic NKA inhibition curve,20%
same,IC50,"[6]; purified pig kidney enzyme, low affinity component of biphasic curve",~10 µM and 10 µM
same,inhibition of NKA activity,[6]; ~10 μM,~50%
